Assays:
Experiment in all cases: relative viability (nuclei count vs DMSO), 5 days (fraction); higher = more cells survive
Afatinib + Crizotinib = compound: CN(C)C/C=C/C(=O)Nc1cc2c(Nc3ccc(F)c(Cl)c3)ncnc2cc1O[C@H]1CCOC1 [Afatinib] + C[C@@H](Oc1cc(-c2cnn(C3CCNCC3)c2)cnc1N)c1c(Cl)ccc(F)c1Cl [Crizotinib] (partner 1 µM)
Summary of the method: (§1)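 Lung cancer cell lines in 1536-well plates got either a single drug or a fixed anchor-drug dose together with five library-drug doses (not always all listed) in √10 steps, by pin tool, on the day after seeding. Nuclei were counted after 5 days, and relative viability is the treated-to-vehicle ratio of nuclei counts. Values are medians of duplicate plates.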

Afatinib + Linsitinib = compound: CN(C)C/C=C/C(=O)Nc1cc2c(Nc3ccc(F)c(Cl)c3)ncnc2cc1O[C@H]1CCOC1 [Afatinib] + C[C@]1(O)C[C@@H](c2nc(-c3ccc4ccc(-c5ccccc5)nc4c3)c3c(N)nccn32)C1 [Linsitinib] (partner 1 µM)
Summary of the method: as §1

Afatinib + OSI-027 = compound: CN(C)C/C=C/C(=O)Nc1cc2c(Nc3ccc(F)c(Cl)c3)ncnc2cc1O[C@H]1CCOC1 [Afatinib] + COc1cccc2cc(-c3nc([C@H]4CC[C@H](C(=O)O)CC4)n4ncnc(N)c34)[nH]c12 [OSI-027] (partner 0.5 µM)
Summary of the method: as §1

Afatinib + Tozasertib = compound: CN(C)C/C=C/C(=O)Nc1cc2c(Nc3ccc(F)c(Cl)c3)ncnc2cc1O[C@H]1CCOC1 [Afatinib] + Cc1cc(Nc2cc(N3CCN(C)CC3)nc(Sc3ccc(NC(=O)C4CC4)cc3)n2)n[nH]1 [Tozasertib] (partner 0.1 µM)
Summary of the method: as §1

Cell Line	relative viability (Afatinib + Crizotinib; first compound 0.005 µM)	relative viability (Afatinib + Crizotinib; first compound 0.01581 µM)	relative viability (Afatinib + Crizotinib; first compound 0.05 µM)	relative viability (Afatinib + Crizotinib; first compound 0.1581 µM)	relative viability (Afatinib + Crizotinib; first compound 0.5 µM)	relative viability (Afatinib + Linsitinib; first compound 0.005 µM)	relative viability (Afatinib + Linsitinib; first compound 0.01581 µM)	relative viability (Afatinib + Linsitinib; first compound 0.05 µM)	relative viability (Afatinib + Linsitinib; first compound 0.1581 µM)	relative viability (Afatinib + Linsitinib; first compound 0.5 µM)	relative viability (Afatinib + OSI-027; first compound 0.005 µM)	relative viability (Afatinib + OSI-027; first compound 0.01581 µM)	relative viability (Afatinib + OSI-027; first compound 0.05 µM)	relative viability (Afatinib + OSI-027; first compound 0.1581 µM)	relative viability (Afatinib + OSI-027; first compound 0.5 µM)	relative viability (Afatinib + Tozasertib; first compound 0.005 µM)	relative viability (Afatinib + Tozasertib; first compound 0.01581 µM)	relative viability (Afatinib + Tozasertib; first compound 0.05 µM)	relative viability (Afatinib + Tozasertib; first compound 0.1581 µM)	relative viability (Afatinib + Tozasertib; first compound 0.5 µM)
NCI-H838	0.782	0.87	0.901	0.791	0.937	1.04	0.949	1.07	0.952	1.06	0.445	0.353	0.371	0.365	0.363	0.29	0.264	0.282	0.222	0.276
SW 1573	0.963	0.885	1.01	0.683	0.75	0.773	0.865	0.649	0.731	0.703	0.607	0.516	0.644	0.541	0.618	0.16	0.175	0.202	0.158	0.171
PC-14	0.419	0.275	0.257	0.239	0.242	0.271	0.255	0.176	0.237	0.23	0.103	0.104	0.136	0.131	0.0975	0.228	0.257	0.254	0.232	0.247
LK-2	0.201		0.195	0.234	0.243	0.6	0.589	0.742	0.478	0.666	0.213	0.188	0.194	0.156	0.216	0.161	0.173	0.2	0.182	0.166
COR-L23	0.803	0.583	0.634	0.603	0.75	0.874	0.894	0.883	0.825	0.848	0.941	0.829	0.755	0.739	0.78	0.216	0.202	0.216	0.167	0.166
NCI-H1944	1.08	0.989	0.883	0.596	0.709	1.04	0.904	0.776	0.566	0.571	0.429	0.329	0.328	0.311	0.327	0.234	0.247	0.216	0.195	0.208
HCC-78	0.308	0.279	0.245	0.252	0.221	0.53	0.482	0.436	0.413	0.395	0.443	0.326	0.331	0.317	0.283	0.474	0.405	0.403	0.312	0.47
NCI-H2405	0.753	0.86	0.835	0.811	0.819	0.808	0.875	0.963	0.836	0.906	0.65	0.67	0.712	0.603	0.701	0.779	0.741	0.741	0.646	0.824
SK-LU-1	1.07	0.731	0.879	1.12	0.842	1.39	1.11	1.2	1.02	1.01	0.389	0.415	0.327	0.318	0.352	0.332	0.32	0.355	0.322	0.277
EMC-BAC-2	0.816	0.731	0.698	0.693	0.654	0.747	0.684	0.697	0.59	0.572	0.371	0.355	0.418	0.378	0.352	0.315	0.299	0.342	0.326	0.309
NCI-H596	0.987	0.866	0.94	0.904	0.921	1.06	1.16	1.1	1.02	0.888	0.728	0.701	0.746	0.613	0.651	0.848	0.881	0.92	0.777	0.772
LCLC-97TM1	0.491	0.337	0.329	0.242	0.308	0.176	0.179	0.167	0.156	0.205	0.561	0.502	0.629	0.43	0.457	0.248	0.247	0.159	0.268	0.179
H3255	0.225	0.191	0.265	0.166	0.226	0.197	0.124	0.149	0.123	0.138	0.239	0.231	0.214	0.209	0.208	0.315	0.204	0.222	0.168	0.195
LXF-289	0.845	0.777	0.793	0.7	0.811	1	0.927	0.947	0.851	0.947	0.82	0.606	0.62	0.602	0.67	0.146	0.146	0.2	0.152	0.214
UMC-11	0.679	0.558	0.557	0.629	0.71	0.996	0.973	1.04	0.97	1.04	0.469	0.427	0.462	0.46	0.456	0.206	0.199	0.198	0.207	0.187
LC-2-ad	0.566	0.422	0.409	0.382	0.408	0.935	0.817	0.794	0.696	0.682	0.871	0.67	0.823	0.575	0.622	0.507	0.48	0.439	0.483	0.431

Cell Line	relative viability (Afatinib + Crizotinib; first compound 0.005 µM)	relative viability (Afatinib + Crizotinib; first compound 0.01581 µM)	relative viability (Afatinib + Crizotinib; first compound 0.05 µM)	relative viability (Afatinib + Crizotinib; first compound 0.1581 µM)	relative viability (Afatinib + Crizotinib; first compound 0.5 µM)	relative viability (Afatinib + Linsitinib; first compound 0.005 µM)	relative viability (Afatinib + Linsitinib; first compound 0.01581 µM)	relative viability (Afatinib + Linsitinib; first compound 0.05 µM)	relative viability (Afatinib + Linsitinib; first compound 0.1581 µM)	relative viability (Afatinib + Linsitinib; first compound 0.5 µM)	relative viability (Afatinib + OSI-027; first compound 0.005 µM)	relative viability (Afatinib + OSI-027; first compound 0.01581 µM)	relative viability (Afatinib + OSI-027; first compound 0.05 µM)	relative viability (Afatinib + OSI-027; first compound 0.1581 µM)	relative viability (Afatinib + OSI-027; first compound 0.5 µM)	relative viability (Afatinib + Tozasertib; first compound 0.005 µM)	relative viability (Afatinib + Tozasertib; first compound 0.01581 µM)	relative viability (Afatinib + Tozasertib; first compound 0.05 µM)	relative viability (Afatinib + Tozasertib; first compound 0.1581 µM)	relative viability (Afatinib + Tozasertib; first compound 0.5 µM)
SK-MES-1	0.977	0.879	0.626	0.485	0.466	1	0.975	0.543	0.406	0.429	0.36	0.405	0.307	0.265	0.26	0.928	0.897	0.723	0.613	0.532
A-427	0.999	0.963	1.04	0.845	0.855	1.1	1.15	1.11	1.08	1.07	0.426	0.321	0.446	0.519	0.358	0.204	0.193	0.192	0.173	0.225
NCI-H322M	0.775	0.676	0.544	0.359	0.293	0.847	0.616	0.468	0.419	0.588	0.511	0.422	0.463	0.356	0.397	0.386	0.329	0.307	0.304	0.313
HCC-366	0.746	0.643	0.554	0.428	0.476	0.764	0.669	0.56	0.541	0.618	0.947	0.965	0.969	0.824	0.788	0.122	0.143	0.0823	0.0878	0.069
NCI-H1975	1.14	1.07	1.01	0.45	0.307	0.901	1.1	0.794	0.261	0.217	0.81	0.644	0.688	0.303	0.147	0.7	0.702	0.641	0.268	0.218
NCI-H1437	0.985	1.01	0.988	0.881	0.966	1.18	1.1	0.941	0.98	0.967	0.988	0.848	0.894	0.873	0.9	0.416	0.43	0.41	0.397	0.412
NCI-H2009	1.07	0.977	1.12	1.04	1.04	1.23	1.14	1.23	1.13	1.22	0.635	0.633	0.714	0.516	0.459	0.856	0.785	0.789	0.713	0.732
NCI-H1651	0.911	0.85	0.817	0.855	0.82	1.12	0.983	0.847	0.906	0.815	0.688	0.618	0.61	0.67	0.627	0.718	0.748	0.727	0.591	0.609
LCLC-103H	1	1.14	1.03	0.911	1.17	1.09	0.943	1.02	0.99	0.99	0.48	0.46	0.54	0.482	0.479	0.425	0.508	0.441	0.516	0.49
NCI-H1666	0.879	0.885	0.661		0.676	0.724	0.743	0.56		0.561	0.88	0.759	0.657	0.581	0.612	0.673	0.621	0.596	0.519	0.551
NCI-H1734	0.82	0.687	0.652	0.568	0.642	0.9	0.75	0.931	0.865	0.771	0.671	0.624	0.587	0.57	0.511	0.253	0.255	0.269	0.289	0.26
EPLC-272H	0.698	0.72	0.842	0.739	0.575	1.14	0.926	0.832	0.776	0.736	0.279	0.203	0.231	0.213	0.211	0.205	0.427	0.133	0.164	0.253
NCI-H2023	0.576	0.487	0.407	0.402	0.487	0.577	0.494	0.453	0.355	0.414	0.38	0.354	0.394	0.351	0.279	0.422	0.377	0.366	0.169	0.248
BEN	0.929	0.941	1.02	0.908	0.916	0.988	0.875	1.01	0.895	0.962	0.326	0.283	0.297	0.299	0.298	0.461	0.512	0.57	0.475	0.494
COR-L 105	0.618	0.285	0.304	0.221	0.216	0.418	0.207	0.403	0.258	0.278	0.346	0.252	0.265	0.245	0.27	0.333	0.255	0.258	0.165	0.206
ABC-1	1.29	0.98	1.3	0.885	1.13	0.851	0.647	0.788	0.466	0.584	0.475	0.315	0.453	0.429	0.405	0.172	0.123	0.177	0.168	0.165
